# Laboratory results published in EP0503079A1, “PYRIDAZINONE-SUBSTITUTED ETHYNYLPHENYL DERIVATIVE AND REMEDY FOR CIRCULATORY ORGAN DISEASE CONTAINING THE SAME AS ACTIVE INGREDIENT” (KAKEN PHARMACEUTICAL CO., LTD., priority 1990, dated 1992).
# What was measured:
# [1] = tested on: Slc-ddy male mice; assay: Activity on hypoxia induced in decapitation of mice (gasping time); type: in vivo; parameters: dose or concentration left out as unconfirmed; settings: gasping time after decapitation, one hour after oral administration
# Description: In each group, 3 Slc-ddy male mice (4 weeks) were employed. Each test compound was suspended or dissolved in a 0.5 % methyl cellulose solution. After the concentration was adjusted, the dose became […], the solution was administered orally. One hour after the administration, mice were decapitated and gasping time was measured.
# (§1) Inhibition rate was calculated by the following formula. [formula]
# [2] = tested on: platelet aggregation; assay: Inhibitory activity on platelet aggregation (turbidimetry); type: cell-based, New Zealand White male rabbits; settings: for Inhibition rate (%) ADP aggregation: 0.6 µg/mℓ ADP; for Inhibition rate (%) PAF aggregation: 5 x 10⁻⁹M PAF; for Inhibition rate (%) Collagen aggregation: 2 µg/mℓ collagen
# Description: Blood was exsanguinated from New Zealand White male rabbits weighing from 2.5 to 3.0 kg and subjected to the test. Each test compound was dissolved in ethanol and prepared to be 1 x 10⁻⁵, 1 x 10⁻⁶ or 1 x 10⁻⁷M respectively. Each aggregation response was measured by turbidimetry. Concentration of aggregating agent was 2 µg/mℓ of collagen, 0.6 µg/mℓ of adenosine 5'-diphosphate (ADP) or 5 x 10⁻⁹M of platelet aggregating factor (PAF).
# as §1
# [3] = tested on: Aortae abdominalis of male Wister rats; assay: Anti-norepinephrine activity on rat abdominal aorta strip preparations (auto-Magnus apparatus); settings: tension by norepinephrine (10⁻⁷M) regarded as 100
# Description: Aortae abdominalis of male Wister rats (8-12 weeks) were delivered and cut in spiral-shape to be strip preparations. Each test compounds was disolved in DMSO. Then, the solution was diluted with distilled water and prepared to be desired concentration. Using an auto-Magnus apparatus, as to the vasoconstriction after adding norepinephrine, contractive forces were measured under the existence of the test compounds.
# [4] = tested on: Slc: ddy male mice; assay: Activity on stress ulcers (restraint and water immersion); type: in vivo; settings: length of ulcer in glandular stomach; 30 mg/kg orally; restrained and immersed in water of 23°C for 7 hours
# Description: In each group, 5 Slc: ddy male mice (6 weeks) were employed. Each test compound was kneaded with Tween-80 followed by adding a 0.5 % solution of gum arabic to prepare 30 mg/10 mℓ solution (solution containing 1.5 % Tween-80 and 0.5 % gum arabic). Then, the preparation was administered orally in a rate of 30 mg/kg. After the administration, the mice were restrained and immersed in a water tank of 23°C for 7 hours. Then, length of the ulcer in the glandular stomach was measured by a stereoscopic microscope (x 10).
# [5] = Acute toxicity; type: in vivo, mice; settings: mouse, in vivo; oral administration, death rate after 7 days; read-out: LD₅₀
# Description: In each group, 6 Slc: ddy male mice weighing 25 to 29 g (6 weeks) were employed. Each compound was administered orally thereto and a value of acute toxicity was evaluated with death rate after 7 days.
molecule,measurement,setting,value
"2,6-dimethyl-3-methoxycarbonyl-5-{4-(6-oxo-1,4,5,6-tetrahydropyridazinon-3-yl)phenyl}aminocarbonyl-4-[3-{2-(4-nitro)phenyl)ethynyl]phenyl-1,4-dihydropyridine [Compound 4]",Inhibition rate (%),[1],13.2%
same,Inhibition rate (%) ADP aggregation,[2]; compound 10⁻⁵ M,91%
same,Inhibition rate (%) PAF aggregation,[2]; compound 10⁻⁵ M,64%
same,Inhibition rate (%) ADP aggregation,[2]; compound 10⁻⁶ M,58%
same,Inhibition rate (%) Collagen aggregation,[2]; compound 10⁻⁶ M,92%
same,Inhibition rate (%) ADP aggregation,[2]; compound 10⁻⁷ M,22%
same,Inhibition rate (%) Collagen aggregation,[2]; compound 10⁻⁷ M,24%
same,Contractive force,[3]; compound 10⁻⁷ M,13.2
same,Contractive force,[3]; compound 10⁻⁸ M,71.5
same,Contractive force,[3]; compound 10⁻⁹ M,93.2
"2,6-dimethyl-3-methoxycarbonyl-5-{4-(6-oxo-1,4,5,6-tetrahydropyridazinon-3-yl)phenyl}aminocarbonyl-4-{3-(1-heptyn-1-yl)}phenyl-1,4-dihydropyridine [Compound 3]",Inhibition rate (%) ADP aggregation,[2]; compound 10⁻⁵ M,87%
same,Inhibition rate (%) PAF aggregation,[2]; compound 10⁻⁵ M,65%
same,Inhibition rate (%) ADP aggregation,[2]; compound 10⁻⁶ M,59%
same,Inhibition rate (%) Collagen aggregation,[2]; compound 10⁻⁶ M,93%
same,Inhibition rate (%) ADP aggregation,[2]; compound 10⁻⁷ M,18%
same,Inhibition rate (%) Collagen aggregation,[2]; compound 10⁻⁷ M,28%
same,Contractive force,[3]; compound 10⁻⁷ M,12.5
same,Contractive force,[3]; compound 10⁻⁸ M,68.3
same,Contractive force,[3]; compound 10⁻⁹ M,92.4
"2,6-dimethyl-3-methoxycarbonyl-5-{4-(6-oxo-1,4,5,6-tetrahydropyridazinon-3-yl)phenyl}aminocarbonyl-4-{3-(6-morpholino-1-hexyn-1-yl)}phenyl-1,4-dihydropyridine [Compound 5]",Inhibition rate (%),[1],3.2%
same,Inhibition rate (%) ADP aggregation,[2]; compound 10⁻⁵ M,89%
same,Inhibition rate (%) PAF aggregation,[2]; compound 10⁻⁵ M,59%
same,Inhibition rate (%) ADP aggregation,[2]; compound 10⁻⁶ M,61%
same,Inhibition rate (%) Collagen aggregation,[2]; compound 10⁻⁶ M,89%
same,Inhibition rate (%) ADP aggregation,[2]; compound 10⁻⁷ M,20%
same,Inhibition rate (%) Collagen aggregation,[2]; compound 10⁻⁷ M,26%
"2,6-dimethyl-4-(3-ethynylphenyl)-3-methoxycarbonyl-5-{4-(4-methyl-6-oxo-1,4,5,6-tetrahydropyridazinon-3-yl)phenyl}aminocarbonyl-1,4-dihydropyridine [Compound 16]",Inhibition rate (%),[1],3.4%
same,Inhibition rate (%) ADP aggregation,[2]; compound 10⁻⁵ M,88%
same,Inhibition rate (%) PAF aggregation,[2]; compound 10⁻⁵ M,66%
same,Inhibition rate (%) ADP aggregation,[2]; compound 10⁻⁶ M,65%
same,Inhibition rate (%) Collagen aggregation,[2]; compound 10⁻⁶ M,97%
same,Inhibition rate (%) ADP aggregation,[2]; compound 10⁻⁷ M,19%
same,Inhibition rate (%) Collagen aggregation,[2]; compound 10⁻⁷ M,25%
same,Contractive force,[3]; compound 10⁻⁷ M,17.9
same,Contractive force,[3]; compound 10⁻⁸ M,86.4
same,Contractive force,[3]; compound 10⁻⁹ M,105.3
"2,6-dimethyl-4-(3-ethynylphenyl)-3-methoxycarbonyl-5-{4-(5-methyl-6-oxo-1,4,5,6-tetrahydropyridazinon-3-yl)phenyl}aminocarbonyl-1,4-dihydropyridine [Compound 15]",Inhibition rate (%),[1],5.2%
same,Inhibition rate (%),[4],98.1%
same,Inhibition rate (%) ADP aggregation,[2]; compound 10⁻⁵ M,88%
same,Inhibition rate (%) PAF aggregation,[2]; compound 10⁻⁵ M,40%
same,Inhibition rate (%) ADP aggregation,[2]; compound 10⁻⁶ M,47%
same,Inhibition rate (%) Collagen aggregation,[2]; compound 10⁻⁶ M,96%
same,Inhibition rate (%) ADP aggregation,[2]; compound 10⁻⁷ M,16%
same,Inhibition rate (%) Collagen aggregation,[2]; compound 10⁻⁷ M,28%
same,Contractive force,[3]; compound 10⁻⁷ M,9.8
same,Contractive force,[3]; compound 10⁻⁸ M,68.3
same,Contractive force,[3]; compound 10⁻⁹ M,85.6
"4-{3-(2-tert-butoxycarbonyl)ethynyl}phenyl-2,6-dimethyl-5-{4-(6-oxo-1,4,5,6-tetrahydropyridazinon-3-yl)phenyl}aminocarbonyl-3-methoxycarbonyl-1,4-dihydropyridine [Compound 8]",Inhibition rate (%),[1],12.8%
same,Inhibition rate (%),[4],75.4%
"C#Cc1cccc(C2C(C(=O)Nc3ccc(C4=NNC(=O)CC4)cc3)=C(C)NC(N)=C2C(=O)OCC)c1 (stereo not drawn) [Compound 12, 2-amino-3-ethoxycarbonyl-4-(3-ethynylphenyl)-6-methyl-5-{4-(6-oxo-1,4,5,6-tetrahydropyridazinon-3-yl)phenyl)aminocarbonyl-1,4-dihydropyridine]",LD50 at 168 h,[5],1200 mg/kg
same,Inhibition rate (%),[1],30.2%
same,Inhibition rate (%),[4],98.7%
same,Inhibition rate (%) ADP aggregation,[2]; compound 10⁻⁵ M,96%
same,Inhibition rate (%) PAF aggregation,[2]; compound 10⁻⁵ M,72%
same,Inhibition rate (%) ADP aggregation,[2]; compound 10⁻⁶ M,81%
same,Inhibition rate (%) Collagen aggregation,[2]; compound 10⁻⁶ M,96%
same,Inhibition rate (%) ADP aggregation,[2]; compound 10⁻⁷ M,35%
same,Inhibition rate (%) Collagen aggregation,[2]; compound 10⁻⁷ M,33%
same,Contractive force,[3]; compound 10⁻⁷ M,10.3
same,Contractive force,[3]; compound 10⁻⁸ M,69.4
same,Contractive force,[3]; compound 10⁻⁹ M,90.2
"C#Cc1ccc(OC)c(C2C(C(=O)Nc3ccc(C4=NNC(=O)CC4)cc3)=C(C)NC(C)=C2C(=O)OCC)c1 (stereo not drawn) [Compound 18, 2,6-dimethyl-4-(3-ethynyl-6-methoxyphenyl)-3-ethoxycarbonyl-5-{4-(6-oxo-1,4,5,6-tetrahydropyridazinon-3-yl)phenyl}aminocarbonyl-1,4-dihydropyridine]",Inhibition rate (%) ADP aggregation,[2]; compound 10⁻⁵ M,82%
same,Inhibition rate (%) PAF aggregation,[2]; compound 10⁻⁵ M,61%
same,Inhibition rate (%) ADP aggregation,[2]; compound 10⁻⁶ M,61%
same,Inhibition rate (%) Collagen aggregation,[2]; compound 10⁻⁶ M,100%
same,Inhibition rate (%) ADP aggregation,[2]; compound 10⁻⁷ M,19%
same,Inhibition rate (%) Collagen aggregation,[2]; compound 10⁻⁷ M,30%
same,Contractive force,[3]; compound 10⁻⁷ M,16.3
same,Contractive force,[3]; compound 10⁻⁸ M,90.5
same,Contractive force,[3]; compound 10⁻⁹ M,111.2
"C#Cc1cccc(C2C(C(=O)Nc3ccc(C4=NNC(=O)CC4CC)cc3)=C(C)NC(C)=C2C(=O)OC)c1 (stereo not drawn) [Compound 19, 2,6-dimethyl-4-(3-ethynylphenyl)-5-{4-(4-ethyl-6-oxo-1,4,5,6-tetrahydropyridazinon-3-yl)phenyl} aminocarbonyl-3-methoxycarbonyl-1,4-dihydropyridine]",Inhibition rate (%),[1],5.6%
same,Inhibition rate (%),[4],92.6%
same,Inhibition rate (%) ADP aggregation,[2]; compound 10⁻⁵ M,83%
same,Inhibition rate (%) PAF aggregation,[2]; compound 10⁻⁵ M,38%
same,Inhibition rate (%) ADP aggregation,[2]; compound 10⁻⁶ M,63%
same,Inhibition rate (%) Collagen aggregation,[2]; compound 10⁻⁶ M,91%
same,Inhibition rate (%) ADP aggregation,[2]; compound 10⁻⁷ M,20%
same,Inhibition rate (%) Collagen aggregation,[2]; compound 10⁻⁷ M,28%
same,Contractive force,[3]; compound 10⁻⁷ M,14.9
same,Contractive force,[3]; compound 10⁻⁸ M,84.9
same,Contractive force,[3]; compound 10⁻⁹ M,101.1
"C#Cc1cccc(C2C(C(=O)Nc3ccc(C4=NNC(=O)CC4)cc3)=C(C)NC(C)=C2C(=O)OCC)c1 (stereo not drawn) [Compound 20, 2,6-dimethyl-4-(3-ethynylphenyl)-3-ethoxycarbonyl-5-{4-(6-oxo-1,4,5,6-tetrahydropyridazinon-3-yl)phenyl}aminocarbonyl-1,4-dihydropyridine]",Inhibition rate (%) ADP aggregation,[2]; compound 10⁻⁵ M,93%
same,Inhibition rate (%) PAF aggregation,[2]; compound 10⁻⁵ M,70%
same,Inhibition rate (%) ADP aggregation,[2]; compound 10⁻⁶ M,68%
same,Inhibition rate (%) Collagen aggregation,[2]; compound 10⁻⁶ M,95%
same,Inhibition rate (%) ADP aggregation,[2]; compound 10⁻⁷ M,20%
same,Inhibition rate (%) Collagen aggregation,[2]; compound 10⁻⁷ M,23%
"C#Cc1cccc(C2C(C(=O)Nc3ccc(C4=NNC(=O)CC4)cc3)=C(C)NC(C)=C2C(=O)OCCOC)c1 (stereo not drawn) [Compound 22, 2,6-dimethyl-4-(3-ethynylphenyl)-3-methoxyethoxycarbonyl-5-{4-(6-oxo-1,4,5,6-tetrahydropyridazinon-3-yl)phenyl}aminocarbonyl-1,4-dihydropyridine]",Inhibition rate (%) ADP aggregation,[2]; compound 10⁻⁵ M,86%
same,Inhibition rate (%) PAF aggregation,[2]; compound 10⁻⁵ M,48%
same,Inhibition rate (%) ADP aggregation,[2]; compound 10⁻⁶ M,55%
same,Inhibition rate (%) Collagen aggregation,[2]; compound 10⁻⁶ M,100%
same,Inhibition rate (%) ADP aggregation,[2]; compound 10⁻⁷ M,14%
same,Inhibition rate (%) Collagen aggregation,[2]; compound 10⁻⁷ M,29%
"C#Cc1cccc(C2C(C(=O)Nc3ccc(C4=NNC(=O)CC4C)cc3)=C(C)NC(N)=C2C(=O)OCC)c1 (stereo not drawn) [Compound 23, 2-amino-4-(3-ethynylphenyl)-3-ethoxycarbonyl-6-methyl-5-{4-(6-oxo-4-methyl-1,4,5,6-tetrahydropyridazinon-3-yl)phenyl}aminocarbonyl-1,4-dihydropyridine]",Inhibition rate (%),[4],91.7%
same,Inhibition rate (%) ADP aggregation,[2]; compound 10⁻⁵ M,86%
same,Inhibition rate (%) PAF aggregation,[2]; compound 10⁻⁵ M,47%
same,Inhibition rate (%) ADP aggregation,[2]; compound 10⁻⁶ M,56%
same,Inhibition rate (%) Collagen aggregation,[2]; compound 10⁻⁶ M,100%
same,Inhibition rate (%) ADP aggregation,[2]; compound 10⁻⁷ M,18%
same,Inhibition rate (%) Collagen aggregation,[2]; compound 10⁻⁷ M,30%
"CCOC(=O)C1=C(N)NC(C)=C(C(=O)Nc2ccc(C3=NNC(=O)CC3)cc2)C1c1cccc(C#CC(C)(C)O)c1 (stereo not drawn) [Compound 24, 2-amino-4-{3-(3-hydroxy-3-methyl)-1-butyn-1-yl}phenyl-3-ethoxycarbonyl-6-methyl-5-{4-(6-oxo-1,4,5,6-tetrahydropyridazinon-3-yl)phenyl}aminocarbonyl-1,4-dihydropyridine]",LD50 at 168 h,[5],1100 mg/kg
same,Inhibition rate (%),[1],24.2%
same,Inhibition rate (%) ADP aggregation,[2]; compound 10⁻⁵ M,92%
same,Inhibition rate (%) PAF aggregation,[2]; compound 10⁻⁵ M,60%
same,Inhibition rate (%) ADP aggregation,[2]; compound 10⁻⁶ M,70%
same,Inhibition rate (%) Collagen aggregation,[2]; compound 10⁻⁶ M,90%
same,Inhibition rate (%) ADP aggregation,[2]; compound 10⁻⁷ M,27%
same,Inhibition rate (%) Collagen aggregation,[2]; compound 10⁻⁷ M,29%
same,Contractive force,[3]; compound 10⁻⁷ M,11.1
same,Contractive force,[3]; compound 10⁻⁸ M,72.4
same,Contractive force,[3]; compound 10⁻⁹ M,88.8
